Experimental data: paper PMC5939596 (Cell chemical biology, 2016)
Non-standard residues stand in square brackets, D forms with d. *: point of attachment. ACC = NC(=O)Cc1cc(=O)oc2cc(N*)ccc12; Tic = O=C(O)[C@@H]1Cc2ccccc2CN1; AMC = Cc1cc(=O)oc2cc(N*)ccc12; Cbz = O=C(OCc1ccccc1)*

What was measured:
[1] = molecular target: T1, legumain (Homo sapiens, UniProt Q99538); experiment: pH dependence of legumain activity towards P1-Asn and P1-Asp substrates; type: biochemical
T1 sequence (Q99538 18-323 limits assumed): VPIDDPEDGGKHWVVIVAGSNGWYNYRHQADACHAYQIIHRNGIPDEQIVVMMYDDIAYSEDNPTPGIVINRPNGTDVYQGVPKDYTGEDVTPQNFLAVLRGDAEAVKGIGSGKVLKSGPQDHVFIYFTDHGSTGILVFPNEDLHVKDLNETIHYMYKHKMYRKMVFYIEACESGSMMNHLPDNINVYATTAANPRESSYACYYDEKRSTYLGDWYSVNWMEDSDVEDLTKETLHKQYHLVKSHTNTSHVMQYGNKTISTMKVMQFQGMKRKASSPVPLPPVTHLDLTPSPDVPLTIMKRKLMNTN

[2] = molecular target: T2, caspase-3 (Homo sapiens, UniProt P42574); experiment: Probe labelling in lysates of caspase-8/caspase-3 cotransfected M38L cells; type: cell-based; details: probe 1 μM, 30 min at 30°C, pH 5.8 or 7.4, immunoblotting
T2 sequence (P42574 29-175 limits assumed): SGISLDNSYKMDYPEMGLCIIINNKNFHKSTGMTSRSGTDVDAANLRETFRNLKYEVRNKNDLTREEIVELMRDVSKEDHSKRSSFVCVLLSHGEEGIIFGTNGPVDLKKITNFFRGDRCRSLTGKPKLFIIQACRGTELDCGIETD
T2 sequence (P42574 176-277 limits assumed): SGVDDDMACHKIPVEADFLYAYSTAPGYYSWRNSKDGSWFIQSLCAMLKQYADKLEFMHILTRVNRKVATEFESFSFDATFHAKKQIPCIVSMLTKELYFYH

[3] = molecular target: T3, recombinant auto-activated legumain (46 kDa) (Homo sapiens, UniProt Q99538); experiment: Probe binding to recombinant enzyme; details: probe 10 nM, enzyme 50 nM, pH 5.8 and pH 7.2
T3 sequence (Q99538 18-323 limits assumed): T1 sequence (Q99538 18-323 limits assumed)

[4] = molecular target: T4, autoactivated recombinant human legumain (Homo sapiens, UniProt Q99538); experiment: Inhibition rate constants
T4 sequence (Q99538 18-323 limits assumed): T1 sequence (Q99538 18-323 limits assumed)

[5] = molecular target: T1, legumain; experiment: Probe labelling in lysates of caspase-8/caspase-3 cotransfected M38L cells; type: cell-based; details: for probe labelling of legumain: probe 1 μM, 30 min at 30°C, pH 5.8 or 7.4, immunoblotting
[6] = molecular target: T2, caspase-3; experiment: Probe binding in cytochrome c/dATP-activated FreeStyle 293-F cytosolic extract; details: probe 0–1 μM, pH 5.8 and 7.2, 5 or 30 min at 30°C, immunoblotting
[7] = molecular target: T1, legumain; experiment: Direct probe binding and inhibition of legumain in M38L cell lysate; type: biochemical; details: M38L lysate 3.5 μg total protein, probe 0–10 μM, pH 5.8, 30 min at 30°C
[8] = molecular target: T5, prolegumain (56 kDa) (Homo sapiens, UniProt Q99538); experiment: Probe binding to prolegumain; details: immunoblotting
T5 sequence (Q99538 18-433): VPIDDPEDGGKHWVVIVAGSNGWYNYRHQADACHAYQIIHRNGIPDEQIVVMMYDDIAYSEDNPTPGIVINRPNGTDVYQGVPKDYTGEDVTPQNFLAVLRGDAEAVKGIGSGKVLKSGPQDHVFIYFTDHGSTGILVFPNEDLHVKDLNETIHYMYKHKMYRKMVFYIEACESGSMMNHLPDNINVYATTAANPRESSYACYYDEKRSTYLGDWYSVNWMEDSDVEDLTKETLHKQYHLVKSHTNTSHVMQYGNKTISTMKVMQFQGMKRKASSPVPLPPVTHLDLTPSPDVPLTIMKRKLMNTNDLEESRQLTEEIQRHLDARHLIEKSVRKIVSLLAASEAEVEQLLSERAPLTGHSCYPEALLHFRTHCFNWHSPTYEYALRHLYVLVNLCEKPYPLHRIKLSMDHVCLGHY

[9] = molecular target: T1, legumain; experiment: Kinetics of ACC substrate hydrolysis by legumain; type: biochemical; details: for kcat/Km: hydrolysis by legumain
[10] = molecular target: T4, autoactivated recombinant human legumain; experiment: Km of legumain cleavage of Z-Ala-Ala-Asn-AMC; type: biochemical; details: 2.5 nM autoactivated rhLeg, substrate 1.565–200 nM, legumain assay buffer pH 5.8, 30°C
[11] = test system: legumain over-expressing M38L cells; details: time-course 0–24 h, immunoblotting

## Ac-[dY][Tic]TD-{ACC}
[1]
  optimal pH for legumain activity: 4.5

## Ac-D-Tyr-Tic-Thr-Asn-ACC
[1]
  optimal pH for legumain activity: 5.8

## biotin-6-ahx-D-Tyr-Tic-Ser-Asp-AOMK [MP-L01] [listing 1 of 2 here]
[2]
  probe labelling of caspase-3: could not detect such activity
[3]
  binding to recombinant auto-activated legumain: bound by MP-L01 at pH 5.8 and not at pH 7.2
[4]; 2.5 nM enzyme, Z-Ala-Ala-Asn-AMC substrate, pH 5.8, 30°C
  inhibition rate constant (kobs/I) relative to the two methylated probes (MP-L02 and -L03): approximately 100 fold
[5]; lysates of M38L cells, pH 5.8 versus 7.4
  pH dependence of legumain binding: only detected at pH 5.8 and not at 7.4
[5]
  probe labelling of legumain: only binds legumain
[6]
  binding to active caspase-3: only weakly bound
[7]
  potency relative to either methylated probes (MP-L02 or -L03): approximately 100 fold
[8]
  binding to cellular, secreted or recombinant prolegumain (56 kDa): did not bind

## Cbz-Ala-Ala-Asn-{ACC}
[9]
  kcat/Km: 36100 s^−1M^−1
[9]; ratio of kcat/Km, Z-AAN-ACC versus Z-AAD-ACC
  times faster cleaved than its P1-Asp analog: ~ 22

## Cbz-Ala-Ala-Asn-{AMC}
[10]
  Km: 25.7 µM

## Cbz-Ala-Ala-Asp-{ACC}
[9]
  kcat/Km: 1600 M⁻¹ s⁻¹

## biotin-6-ahx-DEVD-AOMK [reference compound]
[2]
  probe labelling of caspase-3: labels both legumain and caspase-3
[4]
  inhibition of recombinant legumain (kobs/I), lower efficiency than MP-L01: 20 fold
[5]
  probe labelling of legumain: labels both legumain and caspase-3
[6]
  binding to active caspase-3: strongly bound

## biotin-6-ahx-D-Tyr-Tic-Ser-Asp-AOMK [MP-L01] [listing 2 of 2 here]
[11]
  incubation time for maximal detection of probe in cells: 8 to 24 h
